Measured values published in US20190262330A1, “Method of Treating Hepatocellular Carcinoma Using N-(4-(6,7-dimethoxyquinolin-4-yloxy)phenyl)-N′-(4-fluorophenyl)cyclopropane-1,1-dicarboxamide, (2S)-hydroxybutanedioate” (Exelixis, Inc., priority 2017, published 2019).

What was measured:
CYP2A6 = CYP2A6 (Homo sapiens, UniProt P11509); assay: In vitro metabolic pathways; assay type: in vitro ADME
CYP3A4 [1] = molecular target: T1, CYP3A4 (Homo sapiens, UniProt P08684); assay: Drug interaction with strong CYP3A4 inhibitor ketoconazole; assay type: in vivo; set-up: from tissue; conditions: ketoconazole 400 mg daily for 27 days, healthy subjects
CYP3A4 [2] = molecular target: T1, CYP3A4; assay: In vitro CYP inhibition; assay type: in vitro ADME
CYP3A4 [3] = assay: In vitro CYP induction; assay type: in vitro ADME
CYP2C8 [4] = molecular target: T2, CYP2C8 (Homo sapiens, UniProt P10632); assay: In vitro CYP inhibition; assay type: in vitro ADME
juvenile rats = assay type: in vivo, rat
Description: […]. Mortalities occurred at doses equal and greater than 1 mg/kg/day (approximately 0.16 times the clinical dose of 60 mg/day based on body surface area).

CYP3A4 [5] = molecular target: T1, CYP3A4; assay: In vitro metabolic pathways; assay type: in vitro ADME
CYP2C8 [6] = assay: In vitro CYP induction; assay type: in vitro ADME
CYP2C9 [7] = molecular target: CYP2C9 (Homo sapiens, UniProt P11712); assay: In vitro CYP inhibition; assay type: in vitro ADME
[8] = system: previously treated advanced HCC; assay: CELESTIAL secondary analysis: target lesion size, serum AFP, time to progression; assay type: in vivo, human
Description: Patients must have received prior sorafenib and were allowed up to 2 lines of prior systemic therapy for HCC. Change in the sum of target lesion diameters (SOD) from baseline was determined every 8 weeks by investigator. Best percentage change in SOD was defined as the maximum reduction in SOD at any postbaseline timepoint. Serum AFP levels were measured centrally at baseline and every 8 weeks on the same schedule as tumor assessments. TTP was defined as the time from randomization to radiological progression or clinical deterioration and was determined retrospectively.

CYP2E1 = CYP2E1 (Homo sapiens, UniProt P05181); assay: In vitro metabolic pathways; assay type: in vitro ADME
CYP2B6 = assay: In vitro CYP induction; assay type: in vitro ADME
CYP2C9 [9] = assay: In vitro CYP induction; assay type: in vitro ADME
TRKB = TRKB (Homo sapiens, UniProt Q16620); assay: In vitro biochemical and/or cellular kinase assays
CYP2C8 [10] = molecular target: T2, CYP2C8; assay: In vitro metabolic pathways; assay type: in vitro ADME
CYP3A4 [11] = assay: Drug interaction with strong CYP3A4 inducer rifampin; assay type: in vivo, human; conditions: rifampin 600 mg daily for 31 days, healthy subjects
CYP1A2 [12] = molecular target: CYP1A2 (Homo sapiens, UniProt P05177); assay: In vitro CYP inhibition; assay type: in vitro ADME
FLT-3 = FLT-3 (Homo sapiens, UniProt P36888); assay: In vitro biochemical and/or cellular kinase assays
VEGFR-3 = VEGFR-3 (Homo sapiens, UniProt P35916); assay: In vitro biochemical and/or cellular kinase assays
ROS1 = ROS1 (Homo sapiens, UniProt P08922); assay: In vitro biochemical and/or cellular kinase assays
[13] = system: murine models of hepatocellular carcinoma; conditions: mouse, in vivo; cited from earlier work
pregnant rats = assay: Embryo-fetal development study in pregnant rats; conditions: daily oral, throughout organogenesis
CYP2D6 = CYP2D6 (Homo sapiens, UniProt P10635); assay: In vitro metabolic pathways; assay type: in vitro ADME
MRP2 = MRP2 (Homo sapiens, UniProt Q92887); assay: Drug transporter systems; assay type: in vitro ADME; conditions: in vitro
[14] = Excretion of 14C-cabozantinib radioactivity in healthy subjects; assay type: in vivo, human; conditions: 72 hour collection
Description: Approximately 81% of the total administered radioactivity was recovered within a 48-day collection period following a single 140 mg dose of an investigational ^14C-cabozantinib formulation in healthy subjects. Approximately 54% was recovered in feces and 27% in urine.

CYP1A2 [15] = assay: In vitro CYP induction; assay type: in vitro ADME
[16] = Clinical pharmacokinetics; assay type: in vivo, human
[17] = system: advanced hepatocellular carcinoma; conditions: from study entry; cited from earlier work
KIT = KIT (Homo sapiens, UniProt P10721); assay: In vitro biochemical and/or cellular kinase assays
CYP2C19 [18] = assay: In vitro CYP induction; assay type: in vitro ADME
MER = MER (Homo sapiens, UniProt Q12866); assay: In vitro biochemical and/or cellular kinase assays
[19] = Population pharmacokinetic analysis in specific populations; assay type: in vivo, human; conditions: integrated population pharmacokinetic analysis
Description: The pooled analysis included 391 patients with HCC of whom […] were categorized as having normal liver function, mild, and moderate hepatic impairment, respectively.

CYP2C19 [20] = molecular target: CYP2C19 (Homo sapiens, UniProt P33261); assay: In vitro CYP inhibition; assay type: in vitro ADME
Chain of CYP2C19 (Homo sapiens, UniProt P33261) (P33261 whole entry): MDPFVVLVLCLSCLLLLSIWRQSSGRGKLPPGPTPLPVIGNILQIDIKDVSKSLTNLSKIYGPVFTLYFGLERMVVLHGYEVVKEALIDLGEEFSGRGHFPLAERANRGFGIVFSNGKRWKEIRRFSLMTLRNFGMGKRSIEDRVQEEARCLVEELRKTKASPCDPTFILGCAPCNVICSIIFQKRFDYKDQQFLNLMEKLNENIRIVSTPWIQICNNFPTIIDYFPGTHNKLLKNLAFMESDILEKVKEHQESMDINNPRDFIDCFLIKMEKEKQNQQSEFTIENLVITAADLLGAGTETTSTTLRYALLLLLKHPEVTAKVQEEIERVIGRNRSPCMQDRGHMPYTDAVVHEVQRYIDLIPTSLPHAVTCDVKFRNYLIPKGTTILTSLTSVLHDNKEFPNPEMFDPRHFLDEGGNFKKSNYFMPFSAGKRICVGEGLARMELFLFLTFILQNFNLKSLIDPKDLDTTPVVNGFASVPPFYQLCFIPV

T1 sequence (P08684 whole entry): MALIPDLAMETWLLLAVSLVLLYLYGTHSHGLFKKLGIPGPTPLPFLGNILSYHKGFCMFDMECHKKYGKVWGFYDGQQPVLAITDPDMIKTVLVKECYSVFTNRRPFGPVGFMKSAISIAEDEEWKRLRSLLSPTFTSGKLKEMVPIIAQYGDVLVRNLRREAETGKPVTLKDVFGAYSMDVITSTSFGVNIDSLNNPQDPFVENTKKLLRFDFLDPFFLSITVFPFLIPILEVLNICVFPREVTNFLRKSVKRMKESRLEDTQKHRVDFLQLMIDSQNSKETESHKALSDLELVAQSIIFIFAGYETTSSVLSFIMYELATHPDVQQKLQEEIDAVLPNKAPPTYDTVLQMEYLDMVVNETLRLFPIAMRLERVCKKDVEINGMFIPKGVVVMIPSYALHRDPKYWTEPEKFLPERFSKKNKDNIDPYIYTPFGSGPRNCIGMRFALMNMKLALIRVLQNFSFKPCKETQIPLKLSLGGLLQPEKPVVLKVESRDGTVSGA
T2 sequence (P10632 whole entry): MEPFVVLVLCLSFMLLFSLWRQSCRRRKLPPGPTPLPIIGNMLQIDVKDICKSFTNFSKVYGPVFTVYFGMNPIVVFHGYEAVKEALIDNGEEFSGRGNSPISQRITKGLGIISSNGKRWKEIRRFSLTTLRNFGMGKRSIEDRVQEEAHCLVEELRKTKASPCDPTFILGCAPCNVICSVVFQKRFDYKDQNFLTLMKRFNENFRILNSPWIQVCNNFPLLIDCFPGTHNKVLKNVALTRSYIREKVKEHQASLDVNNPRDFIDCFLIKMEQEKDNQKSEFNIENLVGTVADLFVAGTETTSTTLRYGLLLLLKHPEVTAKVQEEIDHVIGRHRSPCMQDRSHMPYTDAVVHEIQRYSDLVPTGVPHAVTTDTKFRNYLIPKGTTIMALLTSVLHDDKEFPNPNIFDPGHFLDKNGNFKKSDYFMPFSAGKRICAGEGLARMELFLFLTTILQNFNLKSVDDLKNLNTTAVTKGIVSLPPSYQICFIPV
Chain of KIT (P10721 26-976): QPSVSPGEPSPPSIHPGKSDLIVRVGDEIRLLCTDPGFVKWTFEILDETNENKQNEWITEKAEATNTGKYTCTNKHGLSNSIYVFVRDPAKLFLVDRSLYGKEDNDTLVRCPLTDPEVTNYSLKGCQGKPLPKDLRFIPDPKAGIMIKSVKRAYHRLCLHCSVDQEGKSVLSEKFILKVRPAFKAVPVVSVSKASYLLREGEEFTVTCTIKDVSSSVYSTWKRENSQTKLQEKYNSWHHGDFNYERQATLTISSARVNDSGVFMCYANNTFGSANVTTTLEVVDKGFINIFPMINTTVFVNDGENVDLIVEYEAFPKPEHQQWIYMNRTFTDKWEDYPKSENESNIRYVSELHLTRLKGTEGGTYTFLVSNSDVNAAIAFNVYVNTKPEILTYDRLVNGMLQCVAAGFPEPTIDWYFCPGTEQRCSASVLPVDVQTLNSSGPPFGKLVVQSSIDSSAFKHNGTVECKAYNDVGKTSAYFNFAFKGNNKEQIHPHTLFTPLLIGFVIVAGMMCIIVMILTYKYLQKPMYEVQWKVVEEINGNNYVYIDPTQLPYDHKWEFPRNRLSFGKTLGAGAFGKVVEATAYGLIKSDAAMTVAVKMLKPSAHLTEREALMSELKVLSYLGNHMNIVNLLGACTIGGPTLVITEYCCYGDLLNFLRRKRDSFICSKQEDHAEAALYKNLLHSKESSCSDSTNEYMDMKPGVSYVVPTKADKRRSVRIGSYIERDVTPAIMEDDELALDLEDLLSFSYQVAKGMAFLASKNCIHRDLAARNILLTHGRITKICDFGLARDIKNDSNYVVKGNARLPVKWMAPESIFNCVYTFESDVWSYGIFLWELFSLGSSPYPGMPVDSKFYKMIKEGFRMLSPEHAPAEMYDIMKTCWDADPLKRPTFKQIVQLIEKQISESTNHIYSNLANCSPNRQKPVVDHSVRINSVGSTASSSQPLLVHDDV
Chain of MRP2 (Q92887 whole entry): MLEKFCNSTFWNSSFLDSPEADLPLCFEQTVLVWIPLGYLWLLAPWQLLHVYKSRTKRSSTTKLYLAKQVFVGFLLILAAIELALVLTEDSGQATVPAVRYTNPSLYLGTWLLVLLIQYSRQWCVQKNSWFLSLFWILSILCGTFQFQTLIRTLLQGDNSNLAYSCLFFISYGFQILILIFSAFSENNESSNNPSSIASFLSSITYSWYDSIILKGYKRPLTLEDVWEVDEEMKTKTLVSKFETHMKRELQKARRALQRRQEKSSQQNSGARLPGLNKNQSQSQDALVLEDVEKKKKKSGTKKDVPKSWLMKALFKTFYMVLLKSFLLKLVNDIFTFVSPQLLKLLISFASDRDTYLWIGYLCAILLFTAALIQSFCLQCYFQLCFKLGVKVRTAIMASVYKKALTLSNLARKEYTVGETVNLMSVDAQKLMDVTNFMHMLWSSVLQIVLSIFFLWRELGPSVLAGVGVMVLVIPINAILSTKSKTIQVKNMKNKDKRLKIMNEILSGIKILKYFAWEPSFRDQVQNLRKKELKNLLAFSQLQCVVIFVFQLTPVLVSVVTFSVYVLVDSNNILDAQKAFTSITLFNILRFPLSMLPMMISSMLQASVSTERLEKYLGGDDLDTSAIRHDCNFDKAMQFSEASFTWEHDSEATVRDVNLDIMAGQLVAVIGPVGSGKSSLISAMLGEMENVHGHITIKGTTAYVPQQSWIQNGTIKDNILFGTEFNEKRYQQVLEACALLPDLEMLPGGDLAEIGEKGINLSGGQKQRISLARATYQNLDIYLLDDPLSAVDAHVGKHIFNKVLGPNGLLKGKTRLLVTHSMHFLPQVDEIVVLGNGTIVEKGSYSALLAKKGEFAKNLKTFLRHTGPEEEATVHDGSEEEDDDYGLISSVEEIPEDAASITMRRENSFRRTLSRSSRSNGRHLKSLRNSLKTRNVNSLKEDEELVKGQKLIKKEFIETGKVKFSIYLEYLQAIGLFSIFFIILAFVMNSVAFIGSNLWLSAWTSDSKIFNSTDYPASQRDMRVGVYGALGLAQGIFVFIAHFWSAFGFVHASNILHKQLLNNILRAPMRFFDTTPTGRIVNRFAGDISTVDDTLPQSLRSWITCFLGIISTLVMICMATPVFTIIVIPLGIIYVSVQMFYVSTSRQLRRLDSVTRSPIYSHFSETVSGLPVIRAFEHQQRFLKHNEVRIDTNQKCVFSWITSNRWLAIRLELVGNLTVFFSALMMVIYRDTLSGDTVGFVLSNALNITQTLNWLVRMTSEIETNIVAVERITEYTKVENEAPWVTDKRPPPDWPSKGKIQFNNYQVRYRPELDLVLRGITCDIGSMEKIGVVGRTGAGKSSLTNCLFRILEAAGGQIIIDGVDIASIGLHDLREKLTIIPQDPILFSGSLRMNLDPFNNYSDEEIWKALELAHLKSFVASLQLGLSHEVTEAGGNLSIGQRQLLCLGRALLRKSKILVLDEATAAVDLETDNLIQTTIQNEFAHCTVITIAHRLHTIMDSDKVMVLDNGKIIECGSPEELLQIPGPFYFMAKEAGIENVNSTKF
Chain of CYP2A6 (P11509 whole entry): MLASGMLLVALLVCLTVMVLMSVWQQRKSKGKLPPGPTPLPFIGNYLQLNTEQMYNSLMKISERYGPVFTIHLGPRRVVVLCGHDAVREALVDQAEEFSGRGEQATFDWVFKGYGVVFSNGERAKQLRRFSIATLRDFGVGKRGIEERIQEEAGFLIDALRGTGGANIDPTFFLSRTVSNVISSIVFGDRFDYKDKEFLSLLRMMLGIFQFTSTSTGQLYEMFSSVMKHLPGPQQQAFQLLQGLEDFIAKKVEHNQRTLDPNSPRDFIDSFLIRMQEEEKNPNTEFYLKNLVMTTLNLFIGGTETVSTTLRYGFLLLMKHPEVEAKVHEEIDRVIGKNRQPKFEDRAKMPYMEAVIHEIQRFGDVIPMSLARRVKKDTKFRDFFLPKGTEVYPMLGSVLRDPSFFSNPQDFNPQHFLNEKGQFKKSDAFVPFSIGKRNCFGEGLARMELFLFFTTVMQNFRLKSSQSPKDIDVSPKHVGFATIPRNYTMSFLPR
Chain of CYP2D6 (P10635 whole entry): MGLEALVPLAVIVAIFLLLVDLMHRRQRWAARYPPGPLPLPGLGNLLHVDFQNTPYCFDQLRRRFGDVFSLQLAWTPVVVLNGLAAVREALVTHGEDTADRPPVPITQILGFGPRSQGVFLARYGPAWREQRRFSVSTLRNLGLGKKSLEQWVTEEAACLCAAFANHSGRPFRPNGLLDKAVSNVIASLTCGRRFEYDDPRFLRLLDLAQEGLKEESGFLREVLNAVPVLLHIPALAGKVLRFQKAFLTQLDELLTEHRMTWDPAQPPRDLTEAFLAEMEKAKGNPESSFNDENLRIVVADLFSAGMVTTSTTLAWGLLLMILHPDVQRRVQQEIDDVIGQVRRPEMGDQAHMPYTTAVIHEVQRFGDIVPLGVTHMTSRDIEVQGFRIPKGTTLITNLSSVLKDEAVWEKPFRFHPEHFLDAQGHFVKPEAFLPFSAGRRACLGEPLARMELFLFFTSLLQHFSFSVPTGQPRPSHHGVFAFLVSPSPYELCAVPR

Compound: COc1cc2nccc(Oc3ccc(NC(=O)C4(C(=O)Nc5ccc(F)cc5)CC4)cc3)c2cc1OC [cabozantinib]
- Effect of inhibition of CYP2A6 on metabolite formation (CYP2A6): no effect
- Increase of single-dose plasma exposure (AUC0-inf) (CYP3A4 [1]): 38%
- Effect on CYP3A4 pathway (CYP3A4 [2]): affected by cabozantinib in vitro
- Induction of CYP3A4 (CYP3A4 [3]): does not induce
- Inhibition of CYP2C8 (CYP2C8 [4]): inhibitor
- Mortality (juvenile rats; 2 mg/kg): high levels of mortality
- Effects on bones (juvenile rats; rat, in vivo): reduced bone mineral content and density, physeal hypertrophy, and decreased cortical bone
- Recovery after treatment ceased (juvenile rats; rat, in vivo): effects on bone parameters were partially resolved but effects on the kidney and epididymis/testis persisted
- Target organs (juvenile rats; rat, in vivo): kidney (nephropathy, glomerulonephritis), reproductive organs, gastrointestinal tract
- 1 mg/kg/day as times the clinical dose of 60 mg/day based on body surface area (juvenile rats; rat, in vivo, 1 mg/kg/day): approximately 0.16 times
- 2 mg/kg as times the clinical dose of 60 mg based on body surface area (juvenile rats; rat, in vivo, 2 mg/kg): approximately 0.32 times
- CYP3A4 substrate status (CYP3A4 [5]): substrate
- Induction of CYP2C8 (CYP2C8 [6]): does not induce
- Effect on CYP2C9 pathway (CYP2C9 [7]): affected by cabozantinib in vitro
- Patients with any postbaseline reduction in SOD as best response ([8]; ITT): 47%
- Patients with ≥30% reduction in SOD ([8]; ITT): 8%
- Patients with ≥50% postbaseline decrease in serum AFP ([8]; ITT): 23%
- Patients with ≥30% reduction in postbaseline SOD ([8]; baseline AFP <400 ng/mL): 9%
- Patients with ≥30% reduction in postbaseline SOD ([8]; baseline AFP ≥400 ng/mL): 7%
- Median TTP ([8]; in vivo): 5.4 months
- Effect of inhibition of CYP2E1 on metabolite formation (CYP2E1): no effect
- Induction of CYP2B6 (CYP2B6): does not induce
- Induction of CYP2C9 (CYP2C9 [9]): does not induce
- Tyrosine kinase activity of TRKB (TRKB): inhibits
- Effect of inhibition of CYP2C8 on metabolite formation (CYP2C8 [10]): no effect
- Decrease of single-dose plasma exposure (AUC0-inf) (CYP3A4 [11]): 77%
- Inhibition of CYP1A2 (CYP1A2 [12]): does not inhibit
- Tyrosine kinase activity of FLT-3 (FLT-3): inhibits
- Tyrosine kinase activity of VEGFR-3 (VEGFR-3): inhibits
- Tyrosine kinase activity of ROS1 (ROS1): inhibits
- Tumor growth [13]: inhibits tumor growth
- Dose with delayed ossification and skeletal variations (pregnant rats): 0.01 mg/kg/day
- Effect of inhibition of CYP2D6 on metabolite formation (CYP2D6): no effect
- MRP2 substrate status (MRP2): substrate
- Unchanged cabozantinib as share of total radioactivity in feces [14]: 43%
- Induction of CYP1A2 (CYP1A2 [15]): does not induce
- Steady state achieved ([16]; 140 mg daily): ≤ 15 days
- Vd/F ([16]; human, plasma, po, read-out: Oral volume of distribution (VZ/F)): ~319 L
- Tmax ([16]; human, plasma, oral, read-out: Median time to peak plasma concentrations (Tmax)): 3 to 4 h
- Median overall survival [17]: 11.5 months
- Median progression-free survival [17]: 5.2 months
- Tyrosine kinase activity of KIT (KIT): inhibits
- Induction of CYP2C19 (CYP2C19 [18]): does not induce
- Tyrosine kinase activity of MER (MER): inhibits
- Differences in mean plasma exposure among normal liver function, mild and moderate hepatic impairment [19]: no clinically significant differences
- Effect on CYP2C19 pathway (CYP2C19 [20]): affected by cabozantinib in vitro
